# Results taken from patent US20220332799A1, “HERV INHIBITORS FOR USE IN TREATING TAUOPATHIES” (Deutsches Zentrum Für Neurodegenerative Erkrankungen E.V. …, priority 2019, published 2022).
# Entries after “also recorded” stand apart in the source; their conditions may differ.
# Experiments:
# [1] = system: HEK Tau-FusionRed^sol cells; experiment: Tau-FusionRed aggregate induction by coculture with T47D Tau-GFP^AD or Tau-GFP^FTLD donor cells; type: cell-based, human; details: T47D Tau-GFP^AD or Tau-GFP^FTLD donors pretreated one day with 10 μM, coculture 3 d in presence of drug; vs DMSO
# Protocol: FIG. 4: Human endogenous retrovirus proteins potentiate intercellular Tau aggregate induction. • a. Workflow of Amprenavir treatment. […]. Two days later, these donor cells were incubated with 10 μM Amprenavir or solvent control DMSO for 1 d. Subsequently, donor cells with NM-GFP^agg, Tau-GFP^FTLD or Tau-GFP^AD aggregates were cocultured with recipient HEK NM-mCherry^sol or HEK Tau-FusionRed^sol cells, respectively, for 1 d (NM) or 3 d (Tau) in the presence of 10 μM Amprenavir or DMSO. • b. […] Percentage of recipient HEK NM-Cherry cells that harbor induced NM-mCherry aggregates. • c., d. […] Percentage of HEK Tau-FusionRed cells that harbor Tau-FusionRed^agg after coculture with T47D Tau-GFP^agg donor cell lines (n=6, ***, p<0.001; unpaired student t test).
# To examine the effect of HERV-K proteins on Tau aggregate spreading, a T47D donor cell line stably expressing Tau-GFP^sol was generated. […]
# The treatment of cells with Amprenavir (10 μM; Santa Cruz) and DMSO was performed for 72 h in EV-depleted medium in T175 flasks. Afterwards, the total numbers of viable cells and the viability upon drug treatment were determined using the Vi-VELL™ XR Cell Viability Analyzer (Beckman Coulter). […]
# HEK NM-mCherry^sol cells = experiment: NM-mCherry aggregate induction by coculture with T47D NM-GFP^agg donor cells; type: cell-based, human; details: 10 μM, donors 1 d pretreated, coculture 1 d in presence of drug; vs DMSO
# MuERV Env = experiment: Western blot of Env maturation in donor cell lysates and EVs; type: cell-based, mouse; details: donor cells 10 μM, 3 days, vs DMSO
# Protocol: Cell lysates and EVs derived from Amprenavir-treated donor cell clone N2a NM-HA^agg s2E were analyzed for Env maturation by Western blot. Amprenavir-treated cell lysate and EVs lack the proteolytical mature Env transmembrane (TM) fragment p15E required for receptor binding. Cleaved products and degradation intermediates were detected by anti-MuLV virus antibody ABIN457298. Presumed bands representing Env precursor protein (gp85 and gp70), Pr15E or cleavage product (p15E) are indicated. • b., c. Aggregate induction in recipient N2a NM-GFP^sol cells cocultured with Amprenavir-pretreated N2a NM-HA^agg s2E donor cells or (c) in recipient cells exposed to EVs derived from Amprenavir-treated donors. • d. EVs from donor clone N2a NM-HA^agg s2E were incubated with increasing concentrations of anti-Env antibody mAb83A25 for 1 h and added to recipient N2a NMGFP^sol cells for 16 h. • e, g. Donor clone N2a NM-HA^agg s2E was transfected with three individual siRNAs (SEQ ID NO 14-19) against endogenous Env (e) or (SEQ ID NO 20-25) against Gag (g). […] MuERV Env and Gag protein levels were analyzed by Western blot. • l. […] Recipient N2a NM-GFP^sol cells were transfected with two siRNAs against XPR1 (SEQ ID NO 26-29), siRNA against mCat-1 (SEQ ID NO 30 and 31) or with non-silencing siRNA control. mRNA knock-down was assessed 48 h post siRNA transfection by quantitative PCR. […]
structure (smiles),measurement,setting,value
CC(C)CN(C[C@@H](O)[C@H](Cc1ccccc1)NC(=O)O[C@H]1CCOC1)S(=O)(=O)c1ccc(N)cc1 [Amprenavir],Tau aggregate induction in recipient cells,[1],significant decrease in Tau aggregate induction in recipient cells; also recorded: impairs Tau-FusionRed aggregate induction
same,number of recipient cells with induced NM-mCherry aggregates,HEK NM-mCherry^sol cells,reduced the number of recipient cells with induced NM-mCherry aggregates compared to the DMSO control; also recorded: impairs NM-mCherry aggregate induction
same,Env protein maturation to TM p15E,MuERV Env,"efficiently inhibited Env protein maturation to TM p15E; also recorded: inhibits maturation of endogenous MuERV proteins, including Env"
